Assay results: US20210078988A1, “MODULATORS OF INDOLEAMINE 2,3-DIOXYGENASE” (GLAXOSMITHKLINE INTELLECTUAL PROPERTY DEVELOPMENT LIMITED, priority 2017, published 2021)

Target: T1, indoleamine 2, 3-dioxygenase (IDO1) (Homo sapiens, UniProt P14902)
T1 construct: human peripheral blood mononuclear cells (PBMC) (PB003F; host or cells: human PBMC stimulated with IFN-gamma and LPS
Experiment: PBMC IDO1 assay (kynurenine detection via mass spectrometry)
Format: cell-based
Conditions: human PBMC stimulated with IFN-γ and LPS, 2 days, kynurenine by mass spectrometry; read-out: IDO1 PBMC pIC50 (converted)
Procedure, shortened: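 Human PBMCs (50,000/well) stimulated with IFN-γ 100 ng/ml and LPS 50 ng/ml were exposed to 11-point 3-fold compound dilutions for 2 days at 37 °C. Supernatant kynurenine was quantified by RapidFire MS relative to an internal standard; parallel CellTiter-Glo ATP luminescence measured cytotoxicity, with four-parameter curve fitting.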

T1 sequence (P14902 whole entry): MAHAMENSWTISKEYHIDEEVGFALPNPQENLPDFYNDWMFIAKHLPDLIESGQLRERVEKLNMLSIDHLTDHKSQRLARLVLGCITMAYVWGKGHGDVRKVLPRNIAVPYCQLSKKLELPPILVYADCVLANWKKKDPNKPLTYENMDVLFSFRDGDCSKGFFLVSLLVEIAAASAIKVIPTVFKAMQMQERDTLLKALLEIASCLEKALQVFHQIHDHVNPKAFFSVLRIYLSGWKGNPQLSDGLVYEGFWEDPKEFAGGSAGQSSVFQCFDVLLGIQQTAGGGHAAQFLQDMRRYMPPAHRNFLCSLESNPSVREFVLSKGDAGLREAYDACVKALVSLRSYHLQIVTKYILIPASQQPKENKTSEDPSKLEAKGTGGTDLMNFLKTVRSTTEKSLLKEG

Row | Structure (SMILES) | IC50 [nM]
1 | CC(C)(C)OC(=O)N1CCC(CC(NC(=O)c2ccc(Cl)cc2)C2CCCCC2)CC1 (centres unmarked) [Example 135, tert-butyl 4-(2-(4-chlorobenzamido)-2-cyclohexylethyl)piperidine-1-carboxylate] | 50.1
2 | Cc1ccc(C(=O)NC(CC2CCN(C(=O)C(F)(F)c3ccccn3)CC2)c2ccccc2)s1 (centres unmarked) [Example 136, N-(2-(1-(2,2-difluoro-2-(pyridin-2-yl)acetyl)piperidin-4-yl)-1-phenylethyl)-5-methylthiophene-2-carboxamide] | 50.1
3 | Cc1ccc(C(=O)NC(CC2CCN(c3ccccc3)CC2)c2ccccc2)s1 (centres unmarked) [Example 137, 5-methyl-N-(1-phenyl-2-(1-phenylpiperidin-4-yl)ethyl)thiophene-2-carboxamide] | 50.1
4 | CC(C)(C)OC(=O)N1CCC(CC(NC(=O)c2ccccc2)c2ccccc2)CC1 (centres unmarked) [Example 138, tert-butyl 4-(2-benzamido-2-phenylethyl)piperidine-1-carboxylate] | 63.1
5 | Cc1ccc(C(=O)NC(CC2CCN(C(=O)OC(C)(C)C)CC2)c2ccccc2)cc1F (centres unmarked) [Example 139, tert-butyl 4-(2-(3-fluoro-4-methylbenzamido)-2-phenylethyl)piperidine-1-carboxylate] | 63.1
6 | CN(Cc1ccccc1)c1nnc(C(CC2CCN(C(=O)OC(C)(C)C)CC2)NC(=O)c2ccc(Cl)s2)o1 (centres unmarked) [Example 140, tert-butyl 4-(2-(5-(benzyl(methyl)amino)-1,3,4-oxadiazol-2-yl)-2-(5-chlorothiophene-2-carboxamido)ethyl)piperidine-1-carboxylate] | 63.1
7 | CC(C)(C)OC(=O)N1CCC(CC(NC(=O)c2ccc(C#N)cc2)c2ccccc2)CC1 (centres unmarked) [Example 141, tert-butyl 4-(2-(4-cyanobenzamido)-2-phenylethyl)piperidine-1-carboxylate] | 63.1
8 | CC(C)(C)OC(=O)N1CCC(CC(CNCc2ccccc2)NC(=O)c2ccc(F)cc2)CC1 (centres unmarked) [Example 142, tert-butyl 4-(3-(benzylamino)-2-(4-fluorobenzamido)propyl)piperidine-1-carboxylate] | 63.1
9 | COc1ccc(C(=O)NC(CC2CCN(C(=O)OC(C)(C)C)CC2)c2ccccc2)cc1 (centres unmarked) [Example 143, tert-butyl 4-(2-(4-methoxybenzamido)-2-phenylethyl)piperidine-1-carboxylate] | 79.4
10 | CC(C)Oc1ccc(C(CC2CCN(C(=O)OC(C)(C)C)CC2)NC(=O)c2ccc(F)cc2)cn1 (centres unmarked) [Example 144, tert-butyl 4-(2-(4-fluorobenzamido)-2-(6-isopropoxypyridin-3-yl)ethyl)piperidine-1-carboxylate] | 79.4
11 | COC(=O)N1CCC(CC(NC(=O)c2ccc(F)cc2)c2ccc(OC)nc2)CC1 (centres unmarked) [Example 145, methyl 4-(2-(4-fluorobenzamido)-2-(6-methoxypyridin-3-yl)ethyl)piperidine-1-carboxylate] | 79.4
12 | CC(C)(C)OC(=O)N1CCC(CC(NC(=O)c2cccc(F)c2)c2ccccc2)CC1 (centres unmarked) [Example 146, tert-butyl 4-(2-(3-fluorobenzamido)-2-phenylethyl)piperidine-1-carboxylate] | 79.4
13 | CC(C)(C)OC(=O)N1CCC(CC(NC(=O)c2ccc(F)c(F)c2)c2ccccc2)CC1 (centres unmarked) [Example 147, tert-butyl 4-(2-(3,4-difluorobenzamido)-2-phenylethyl)piperidine-1-carboxylate] | 79.4
14 | CC(C)(C)OC(=O)N1CCC(C[C@H](Nc2nc3ccc(Cl)cc3o2)C2CC2)CC1 [Example 148, (S)-tert-butyl 4-(2-((6-chlorobenzo[d]oxazol-2-yl)amino)-2-cyclopropylethyl)piperidine-1-carboxylate] | 79.4
15 | CC#CCOc1ccc(C(=O)NC(CC2CCN(C(=O)OC(C)(C)C)CC2)c2ccccc2)cc1 (centres unmarked) [Example 149, tert-butyl 4-(2-(4-(but-2-yn-1-yloxy)benzamido)-2-phenylethyl)piperidine-1-carboxylate] | 79.4
16 | O=C(NC(CC1CCN(C(=O)OC2CCCCC2)CC1)c1ccccc1)c1ccc(Cl)cc1 (centres unmarked) [Example 150, cyclohexyl 4-(2-(4-chlorobenzamido)-2-phenylethyl)piperidine-1-carboxylate] | 79.4
17 | CC(C)(C)OC(=O)N1CCC(CC(NC(=O)c2ccc(Cl)cc2)C2CCCC2)CC1 (centres unmarked) [Example 151, tert-butyl 4-(2-(4-chlorobenzamido)-2-cyclopentylethyl)piperidine-1-carboxylate] | 79.4
18 | CC(C)(C)OC(=O)N1CCC(CC(NC(=O)c2ccc(F)cc2)C2CCCCC2)CC1 (centres unmarked) [Example 152, tert-butyl 4-(2-cyclohexyl-2-(4-fluorobenzamido)ethyl)piperidine-1-carboxylate] | 79.4
19 | Cc1cc(C(=O)NC(CC2CCN(C(=O)OC(C)(C)C)CC2)c2ccccc2)cs1 (centres unmarked) [Example 153, tert-butyl 4-(2-(5-methylthiophene-3-carboxamido)-2-phenylethyl)piperidine-1-carboxylate] | 79.4

Row | Structure (SMILES) | IC50 [nM]
20 | CCCC(=O)N1CCC(CC(NC(=O)c2ccc(Cl)cc2)c2ccccc2)CC1 (centres unmarked) [Example 154, N-(2-(1-butyrylpiperidin-4-yl)-1-phenylethyl)-4-chlorobenzamide] | 79.4
21 | C=CC[C@@H](CC1CCN(C(=O)OC(C)(C)C)CC1)NC(=O)c1ccc(Cl)s1 [Example 155, (S)-tert-butyl 4-(2-(5-chlorothiophene-2-carboxamido)pent-4-en-1-yl)piperidine-1-carboxylate] | 79.4
22 | Cc1ccc(C(=O)NC(CC2CCN(C(=O)c3ccccc3)CC2)c2ccccc2)s1 (centres unmarked) [Example 156, N-(2-(1-benzoylpiperidin-4-yl)-1-phenylethyl)-5-methylthiophene-2-carboxamide] | 79.4
23 | COc1ccc(C(=O)NC(CC2CCN(C(=O)OC(C)(C)C)CC2)c2ccccc2)cn1 (centres unmarked) [Example 157, tert-butyl 4-(2-(6-methoxynicotinamido)-2-phenylethyl)piperidine-1-carboxylate] | 100
24 | CCOC(=O)N1CCC(CC(NC(=O)c2ccc(OC)nc2)C2CC2)CC1 (centres unmarked) [Example 158, ethyl 4-(2-cyclopropyl-2-(6-methoxynicotinamido)ethyl)piperidine-1-carboxylate] | 100
25 | CC(C)(C)OC(=O)N1CCC(CC(NC(=O)c2ccsc2)c2ccccc2)CC1 (centres unmarked) [Example 159, tert-butyl 4-(2-phenyl-2-(thiophene-3-carboxamido)ethyl)piperidine-1-carboxylate] | 100
26 | CC(C)(C)OC(=O)N1CCC(CC(NC(=O)c2ccc(F)cc2)c2ccc(OCc3ccccc3)nc2)CC1 (centres unmarked) [Example 160, tert-butyl 4-(2-(6-(benzyloxy)pyridin-3-yl)-2-(4-fluorobenzamido)ethyl)piperidine-1-carboxylate] | 100
27 | COc1cc(C(=O)NC(CC2CCN(C(=O)OC(C)(C)C)CC2)c2ccccc2)ccc1Cl (centres unmarked) [Example 161, tert-butyl 4-(2-(4-chloro-3-methoxybenzamido)-2-phenylethyl)piperidine-1-carboxylate] | 100
28 | CC(C)(C)OC(=O)N1CCC(CC(NC(=O)c2ccc(C#N)c(F)c2)c2ccccc2)CC1 (centres unmarked) [Example 162, tert-butyl 4-(2-(4-cyano-3-fluorobenzamido)-2-phenylethyl)piperidine-1-carboxylate] | 100
29 | CC(C)CC(=O)N1CCC(CC(NC(=O)c2ccc(Cl)cc2)c2ccccc2)CC1 (centres unmarked) [Example 163, 4-chloro-N-(2-(1-(3-methylbutanoyl)piperidin-4-yl)-1-phenylethyl)benzamide] | 100
30 | CC(C)(C)CC(=O)N1CCC(CC(NC(=O)c2ccc(Cl)cc2)c2ccccc2)CC1 (centres unmarked) [Example 164, 4-chloro-N-(2-(1-(3,3-dimethylbutanoyl)piperidin-4-yl)-1-phenylethyl)benzamide] | 100
31 | CC(C)(C)NC(=O)N1CCC(CC(NC(=O)c2ccc(Cl)cc2)c2ccccc2)CC1 (centres unmarked) [Example 165, N-(tert-butyl)-4-(2-(4-chlorobenzamido)-2-phenylethyl)piperidine-1-carboxamide] | 100
32 | CC(C)CS(=O)(=O)N1CCC(CC(NC(=O)c2ccc(Cl)cc2)c2ccccc2)CC1 (centres unmarked) [Example 166, 4-chloro-N-(2-(1-(isobutylsulfonyl)piperidin-4-yl)-1-phenylethyl)benzamide] | 100
33 | CC#CCOc1ccc(C(=O)NC(CC2CCN(C(=O)OC(C)(C)C)CC2)c2ccccc2)cc1F (centres unmarked) [Example 167, tert-butyl 4-(2-(4-(but-2-yn-1-yloxy)-3-fluorobenzamido)-2-phenylethyl)piperidine-1-carboxylate] | 100
34 | CC(C)(C)OC(=O)N1CCC(CC(NC(=O)c2cc(Cl)cs2)c2ccccc2)CC1 (centres unmarked) [Example 168, tert-butyl 4-(2-(4-chlorothiophene-2-carboxamido)-2-phenylethyl)piperidine-1-carboxylate] | 100
35 | CCC(CC)c1nc(C(CC2CCN(C(=O)OC(C)(C)C)CC2)NC(=O)c2ccc(F)cc2)no1 (centres unmarked) [Example 169, tert-butyl 4-(2-(4-fluorobenzamido)-2-(5-(pentan-3-yl)-1,2,4-oxadiazol-3-yl)ethyl)piperidine-1-carboxylate] | 100
36 | CC(C)(C)OC(=O)N1CCC(C[C@H](Nc2ncc(-c3ccccc3)o2)C2CC2)CC1 [Example 170, (S)-tert-butyl 4-(2-cyclopropyl-2-((5-phenyloxazol-2-yl)amino)ethyl)piperidine-1-carboxylate] | 100
37 | CCCNc1nnc(C(CC2CCN(C(=O)OC(C)(C)C)CC2)NC(=O)c2ccc(Cl)s2)o1 (centres unmarked) [Example 171, tert-butyl 4-(2-(5-chlorothiophene-2-carboxamido)-2-(5-(propylamino)-1,3,4-oxadiazol-2-yl)ethyl)piperidine-1-carboxylate] | 100
38 | COC(=O)N1CCC(CC(NC(=O)c2ccc(F)cc2)c2ccccc2)CC1 (centres unmarked) [Example 173, methyl 4-(2-(4-fluorobenzamido)-2-phenylethyl)piperidine-1-carboxylate] | 126
